The text below walks through data of patent US9090600B2, “Fungicidal 4-substituted-3-{phenyl[(heterocyclylmethoxy)imino]methyl}-1,2,4-oxadizol-5(4H)-one derivatives” (BAYER INTELLECTUAL PROPERTY GMBH, priority 2011, dated 2015).

One data set concerns Phytophthora infestans. Format: in vivo. To be noted: tomato plants, spray, 500 ppm, grading 5 days after contamination.
The conditions of data set [1]: pH 2.7.

Marks after values point to notes of the source that are not given here.

For `CC(Oc1ccccc1Cl)C(=O)Nc1nc(CO/N=C(/c2ccccc2)c2noc(=O)n2C)cs1` (racemic) [Example 366], in the data set with Phytophthora infestans, the Eff. % was 94%. Also, the log partition coefficient (LogP) (commonly the decadic logarithm of the partition coefficient of the neutral form, usually between octanol and water) in data set [1] was 4.07 [a].
In the data set on Phytophthora infestans, `CC(C)CC(C)OC(=O)Nc1cccc(CO/N=C(/c2ccc(F)cc2)c2noc(=O)n2C)n1` (racemic) [Example 383] displayed an Eff. % of 70%. The LogP in data set [1] is 4.77 [a].
The corresponding values for `CCC(C(=O)Nc1cccc(CO/N=C(/c2ccccc2)c2noc(=O)n2C)n1)c1ccccc1` (racemic) [Example 386] are 80% and 4.23 [a].
In the same order, the values of `CC(OCC1CC1)C(=O)Nc1cccc(CO/N=C(/c2ccccc2)c2noc(=O)n2C)n1` (racemic) [Example 390] are 100% and 3.78 [a].
On to `Cn1c(/C(=N\OCc2csc(NC(=O)c3ccccc3F)n2)c2ccccc2)noc1=O` [Example 27], for which, in the data set with Phytophthora infestans, the Eff. % is 100%. The LogP in data set [1] was 3.44 [a].
With `Cn1c(/C(=N\OCc2cccc(NC(=O)Cc3ccccc3Cl)n2)c2ccccc2)noc1=O` [Example 29], the Eff. % in the data set with Phytophthora infestans was 100%. For the same compound, in data set [1], the LogP is 3.76 [a].
The corresponding values for `CCCCCCCC(=O)Nc1cccc(CO/N=C(/c2ccccc2)c2noc(=O)n2C)n1` [Example 32] are 100% and 4.71 [a].
`CCCOC(=O)Nc1cccc(CO/N=C(/c2ccccc2)c2noc(=O)n2C)n1` [Example 33] displayed an Eff. % with Phytophthora infestans of 100%. Further, the log partition coefficient (LogP) in data set [1] was 3.62 [a].
For `CC(C)CCOC(=O)Nc1nc(CO/N=C(/c2ccccc2)c2noc(=O)n2C)cs1` [Example 47], the Eff. % in the data set with Phytophthora infestans is given as 100%. Moreover, in data set [1], the log partition coefficient (LogP) is 4.06 [a].
The corresponding values for `CCOCCC(=O)Nc1cccc(CO/N=C(/c2ccccc2)c2noc(=O)n2C)n1` [Example 48] are 98% and 2.96 [a].
Regarding `CC(=O)Nc1cccc(CO/N=C(/c2ccccc2)c2noc(=O)n2C)n1` [Example 52], the Eff. % with Phytophthora infestans is given as 100%. Also, in data set [1], the log partition coefficient (LogP) was 2.44 [a].
The corresponding values for `Cn1c(/C(=N\OCc2csc(NC(=O)COc3ccc(Br)cc3)n2)c2ccccc2)noc1=O` [Example 55] are 100% and 3.94 [a].
In the same order, the values of `CCC(C)CCOC(=O)Nc1cccc(CO/N=C(/c2ccccc2)c2noc(=O)n2C)n1` (centres unmarked) [Example 56] are 100% and 4.78 [a].
In the same order, the values of `CCn1c(/C(=N\OCc2cccc(NC(=O)OC3CCCCC3)n2)c2ccccc2)noc1=O` [Example 61] are 100% and 4.77 [a].
With `Cn1c(/C(=N\OCc2csc(NC(=O)OCC(C)(C)C)n2)c2ccccc2)noc1=O` [Example 72], in the data set with Phytophthora infestans, the Eff. % was 97%. Besides, in data set [1], the LogP is 4.01 [a].
In the data set on Phytophthora infestans, `Cn1c(/C(=N\OCc2csc(NC(=O)Oc3ccccc3)n2)c2ccccc2)noc1=O` [Example 75] displayed an Eff. % of 90%. The lipophilicity (LogP) in data set [1] is 3.48 [a].
The corresponding values for `Cn1c(/C(=N\OCc2cccc(NC(=O)CC3CC4CCC3C4)n2)c2ccccc2)noc1=O` (centres unmarked) [Example 78] are 100% and 4.39 [a].
The corresponding values for `Cn1c(/C(=N\OCc2cccc(NC(=O)OCC(C)(C)c3ccccc3)n2)c2ccccc2)noc1=O` [Example 79] are 88% and 4.71 [a].
For `Cn1c(/C(=N\OCc2csc(NC(=O)c3ccccc3Br)n2)c2ccccc2)noc1=O` [Example 81], in the data set with Phytophthora infestans, the Eff. % is listed as 78%. Also, the log partition coefficient (LogP) in data set [1] was 3.51 [a].
In the same order, the values of `Cc1ccccc1OC(C)C(=O)Nc1nc(CO/N=C(/c2ccccc2)c2noc(=O)n2C)cs1` (centres unmarked) [Example 82] are 99% and 4.12 [a].
The corresponding values for `Cc1cccc(/C(=N/OCc2cccc(N(C(=O)OC(C)(C)C)C(=O)OC(C)(C)C)n2)c2noc(=O)n2C)c1` [Example 87] are 95% and 4.77 [a].
The corresponding values for `Cn1c(/C(=N\OCc2cccc(NC(=O)OCCc3ccc(F)cc3)n2)c2ccccc2)noc1=O` [Example 89] are 99% and 4.19 [a].
`COc1ccccc1C(=O)Nc1nc(CO/N=C(/c2ccccc2)c2noc(=O)n2C)cs1` [Example 91]: the Eff. % in the data set on Phytophthora infestans was found to be 85%. For the same compound, the log partition coefficient (LogP) in data set [1] was 3.71 [a].
In the same order, the values of `CCCCOC(C)C(=O)Nc1cccc(CO/N=C(/c2ccccc2)c2noc(=O)n2C)n1` (centres unmarked) [Example 93] are 99% and 4.3 [a].
With `CCCCCCCCC(=O)Nc1cccc(CO/N=C(/c2ccccc2)c2noc(=O)n2C)n1` [Example 98], in the data set with Phytophthora infestans, the Eff. % was determined as 99%. In addition, the LogP in data set [1] was 5.11 [a].
In the same order, the values of `COc1ccc(CC(=O)Nc2cccc(CO/N=C(/c3cccc(OC)c3)c3noc(=O)n3C)n2)cc1` [Example 101] are 97% and 3.51 [a].
The corresponding values for `Cn1c(/C(=N\OCc2csc(NC(=O)OC3CCCC3)n2)c2ccccc2)noc1=O` [Example 103] are 80% and 3.76 [a].
As for `Cn1c(/C(=N\OCc2cccc(NC(=O)OCCc3ccccc3Cl)n2)c2ccccc2)noc1=O` [Example 106], the Eff. % in the data set with Phytophthora infestans stood at 75%. Moreover, the LogP in data set [1] is 4.56 [a].
In the data set with Phytophthora infestans, `CCCCCCOC(=O)Nc1cccc(CO/N=C(/c2ccccc2)c2noc(=O)n2C)n1` [Example 107] returned an Eff. % of 100%. Besides, in data set [1], the LogP was 4.85 [a].
The corresponding values for `Cn1c(/C(=N\OCc2cccc(NC(=O)OC3CCCC3)n2)c2ccccc2)noc1=O` [Example 110] are 98% and 4.09 [a].
In the same order, the values of `COc1cccc(/C(=N/OCc2cccc(NC(=O)OC3CCCCC3)n2)c2noc(=O)n2C)c1` [Example 112] are 73% and 4.49 [a].
In the same order, the values of `Cn1c(/C(=N\OCc2cccc(NC(=O)c3ccccc3F)n2)c2ccccc2)noc1=O` [Example 114] are 100% and 3.73 [a].
In the data set with Phytophthora infestans, `Cn1c(/C(=N\OCc2cccc(NC(=O)C3CCC3)n2)c2ccccc2)noc1=O` [Example 118] had an Eff. % of 100%. Further, the LogP in data set [1] was 3.27 [a].
In the same order, the values of `COC(=O)C(C)OC(=O)Nc1cccc(CO/N=C(/c2ccccc2)c2noc(=O)n2C)n1` (centres unmarked) [Example 119] are 97% and 3.17 [a].
In the data set on Phytophthora infestans, `Cn1c(/C(=N\OCc2csc(NC(=O)COc3ccc(Cl)cc3Cl)n2)c2ccccc2)noc1=O` [Example 123] gave an Eff. % of 98%. Besides, the lipophilicity (LogP) in data set [1] was 4.23 [a].
The corresponding values for `C#CCC(C)OC(=O)Nc1cccc(CO/N=C(/c2ccccc2)c2noc(=O)n2CC)n1` (centres unmarked) [Example 127] are 100% and 3.81 [a].
In turn, `CCC(C)C(=O)Nc1cccc(CO/N=C(/c2ccccc2)c2noc(=O)n2C)n1` (centres unmarked) [Example 132] had an Eff. % in the data set with Phytophthora infestans of 97%. In addition, the log partition coefficient (LogP) in data set [1] is 3.41 [a].
The corresponding values for `Cc1ccccc1CCOC(=O)Nc1cccc(CO/N=C(/c2ccccc2)c2noc(=O)n2C)n1` [Example 133] are 88% and 4.51 [a].
The corresponding values for `Cn1c(/C(=N\OCc2cccc(NC(=O)c3ccco3)n2)c2ccccc2)noc1=O` [Example 134] are 99% and 3.13 [a].
In the case of `Cn1c(/C(=N\OCc2cccc(NC(=O)C3(C)CC3)n2)c2ccccc2)noc1=O` [Example 137], the Eff. % with Phytophthora infestans was determined as 98%. Also, the lipophilicity (LogP) in data set [1] was 3.31 [a].
The corresponding values for `Cn1c(/C(=N\OCc2cccc(NC(=O)Oc3ccccc3)n2)c2ccccc2)noc1=O` [Example 138] are 97% and 3.73 [a].
The corresponding values for `Cn1c(/C(=N\OCc2cccc(NC(=O)C(C)(C)C)n2)c2cccc(F)c2)noc1=O` [Example 139] are 100% and 3.61 [a].
In the data set on Phytophthora infestans, `Cc1cccc(/C(=N/OCc2cccc(NC(=O)OC(C)(C)C)n2)c2noc(=O)n2C)c1` [Example 142] displayed an Eff. % of 100%. For the same compound, the LogP in data set [1] is 4.34 [a].
In the data set with Phytophthora infestans, `Cn1c(/C(=N\OCc2csc(NC(=O)c3cccc(I)c3)n2)c2ccccc2)noc1=O` [Example 143] came in with an Eff. % of 75%. In data set [1], the log partition coefficient (LogP) was 4.19 [a].
The corresponding values for `Cc1ccc(C(=O)Nc2cccc(CO/N=C(/c3ccccc3)c3noc(=O)n3C)n2)cc1` [Example 144] are 95% and 3.85 [a].
The corresponding values for `CC(COC(=O)Nc1cccc(CO/N=C(/c2ccccc2)c2noc(=O)n2C)n1)c1ccccc1` (centres unmarked) [Example 145] are 83% and 4.46 [a].
`Cn1c(/C(=N\OCc2cccc(NC(=O)CC34CC5CC(CC(C5)C3)C4)n2)c2ccccc2)noc1=O` [Example 146] had an Eff. % with Phytophthora infestans of 93%. In data set [1], the LogP was 5.08 [a].
In the same order, the values of `Cn1c(/C(=N\OCc2cccc(NC(=O)C3CCCCC3)n2)c2ccccc2)noc1=O` [Example 147] are 100% and 3.92 [a].
`CC(C)=CCC(=O)Nc1cccc(CO/N=C(/c2ccccc2)c2noc(=O)n2C)n1` [Example 153] gave an Eff. % in the data set on Phytophthora infestans of 100%. For the same compound, the log partition coefficient (LogP) in data set [1] is 3.59 [a].
Take `CC(Oc1cccc(Br)c1)C(=O)Nc1nc(CO/N=C(/c2ccccc2)c2noc(=O)n2C)cs1` (centres unmarked) [Example 155]: the Eff. % in the data set on Phytophthora infestans worked out at 92%. Moreover, the log partition coefficient (LogP) in data set [1] is 4.17 [a].
Consider `CCCCCOC(=O)Nc1cccc(CO/N=C(/c2ccc(F)cc2)c2noc(=O)n2C)n1` [Example 161], for which, in the data set on Phytophthora infestans, the Eff. % was 92%. For the same compound, the LogP in data set [1] was 4.51 [a].
On to `CC(C)c1cccc(OC(=O)Nc2cccc(CO/N=C(/c3ccccc3)c3noc(=O)n3C)n2)c1` [compound 553], for which, in data set [1], the LogP is 4.64 [a].
Same read-out and setting: the value for `CCOC(=O)COC(=O)Nc1cccc(CO/N=C(/c2ccccc2)c2noc(=O)n2C)n1` [compound 554] was 3.21 [a].
